How the values were obtained:
velvetleaf = experiment: Test A pre-/postemergence greenhouse test; assay type: in vivo, Abutilon theophrasti; details: for Velvetleaf plant response rating: 0 to 100 scale; for Plant response rating, Velvetleaf: 0 to 100 scale where 0 is no effect and 100 is complete control
How it was run: (§1)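 Test compounds in non-phytotoxic solvent with surfactant were applied as a preemergence soil spray to seeded loam/sand pots and, concurrently, postemergence to plants at 2–10 cm, one- to two-leaf stage. About ten days in greenhouse, then injury visually rated against untreated controls.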

umbrella sedge = experiment: Test C flooded paddy test; assay type: in vivo, Cyperus difformis; details: Flood
How it was run: (§2)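 Pots were flooded to 3 cm above the soil surface at treatment, compound applied directly to the paddy water, and that depth held throughout. Plants were kept in a greenhouse for 13 to 15 days, then visually rated against untreated controls.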

crabgrass [1] = experiment: Test C pre-/postemergence test; assay type: in vivo, Digitaria sanguinalis
How it was run: (§3)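 Compounds in a non-phytotoxic solvent with surfactant applied preemergence to seeded pots and, at the same time, postemergence to plants 2–18 cm tall (1- to 4-leaf stage). Paddy tests: pots flooded to 3 cm, compound applied into the water, depth held throughout.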

yellow nutsedge = experiment: Test C pre-/postemergence test; assay type: in vivo, Cyperus esculentus
How it was run: as §3

corn [2] = experiment: Test C pre-/postemergence test; assay type: in vivo, Zea mays
How it was run: as §3

duck salad = experiment: Test C flooded paddy test; assay type: in vivo, Heteranthera limosa; details: Flood
How it was run: as §2

johnsongrass = experiment: Test C pre-/postemergence test; assay type: in vivo, Sorghum halepense
How it was run: as §3

barnyardgrass [3] = experiment: Test A pre-/postemergence greenhouse test; assay type: in vivo, Echinochloa crus-galli; details: for Barnyardgrass plant response rating: 0 to 100 scale; for Plant response rating, Barnyardgrass: 0 to 100 scale where 0 is no effect and 100 is complete control
How it was run: as §1

green foxtail = experiment: Test C pre-/postemergence test; assay type: in vivo, Setaria viridis
How it was run: as §3

soybean = experiment: Test C pre-/postemergence test; assay type: in vivo, Glycine max
How it was run: as §3

crabgrass [4] = experiment: Test A pre-/postemergence greenhouse test; assay type: in vivo, Digitaria sanguinalis; details: for Crabgrass, Large plant response rating: 0 to 100 scale; for Plant response rating, Crabgrass, Large: 0 to 100 scale where 0 is no effect and 100 is complete control
How it was run: as §1

Goosegrass = experiment: Test C pre-/postemergence test; assay type: in vivo, Eleusin indica
How it was run: as §3

pigweed = experiment: Test C pre-/postemergence test; assay type: in vivo, Amaranthus retroflexus
How it was run: as §3

Italian ryegrass = experiment: Test C pre-/postemergence test; assay type: in vivo, Lolium multiflorum
How it was run: as §3

barnyardgrass [5] = experiment: Test C flooded paddy test; assay type: in vivo, Echinochloa crus-galli; details: Flood
How it was run: as §2

corn [6] = experiment: Test A pre-/postemergence greenhouse test; assay type: in vivo, Zea mays; details: for Corn plant response rating: 0 to 100 scale; for Plant response rating, Corn: 0 to 100 scale where 0 is no effect and 100 is complete control
How it was run: as §1

bermudagrass = experiment: Test C pre-/postemergence test; assay type: in vivo, Cynodon dactylon
How it was run: as §3

[7] = Postemergence, 125 g ai/ha, 0 is no effect, 100 is complete control
[8] = Postemergence, 500 g ai/ha, 0 is no effect, 100 is complete control
[9] = Preemergence, 125 g ai/ha, 0 no effect, 100 complete control
[10] = 31 g ai/ha, scale 0 to 100 (0 no effect, 100 complete control)
[11] = 62 g ai/ha, scale 0 to 100, 0 no effect, 100 complete control, 13 to 15 days
[12] = 125 g ai/ha, scale 0 to 100, 0 no effect, 100 complete control, 13 to 15 days
[13] = 250 g ai/ha, scale 0 to 100, 0 no effect, 100 complete control, 13 to 15 days
[14] = Postemergence, 62 g ai/ha, scale 0 to 100, 0 no effect, 100 complete control
[15] = Postemergence, 125 g ai/ha, scale 0 to 100, 0 no effect, 100 complete control
[16] = Postemergence, 250 g ai/ha, scale 0 to 100, 0 no effect, 100 complete control
[17] = 62 g ai/ha, scale 0 to 100 (0 no effect, 100 complete control)
[18] = 62 g ai/ha, Preemergence, scale 0 to 100
[19] = 125 g ai/ha, preemergence, scale 0 (no effect) to 100 (complete control)
[20] = Preemergence, 31 g ai/ha, scale 0 to 100 (0 no effect, 100 complete control)
[21] = preemergence, 250 g ai/ha, scale 0 (no effect) to 100 (complete control)

CC(c1c(C(F)(F)F)nn(C)c1Cl)S(=O)(=O)c1ccc(Cl)c[n+]1[O-] (racemic) [Compound 40]
Velvetleaf plant response rating (velvetleaf; [7]): 50
Velvetleaf plant response rating (velvetleaf; [8]): 60
Velvetleaf plant response rating (velvetleaf; [9]): 0
Plant response rating, Velvetleaf (velvetleaf; Preemergence, 500 g ai/ha): 50
Plant response rating, Sedge, Umbrella (umbrella sedge; [10]): 20
Plant response rating, Sedge, Umbrella (umbrella sedge; [11]): 45
Plant response rating, Sedge, Umbrella (umbrella sedge; [12]): 75
Plant response rating, Sedge, Umbrella (umbrella sedge; [13]): 85
Plant response rating (0 to 100), Crabgrass, Large (crabgrass [1]; Postemergence, 31 g ai/ha): 0
Plant response rating, Crabgrass, Large (crabgrass [1]; [14]): 0
Plant response rating, Crabgrass, Large (crabgrass [1]; [15]): 0
Plant response rating, Crabgrass, Large (crabgrass [1]; [16]): 0
Plant response rating (0 to 100), Nutsedge, Yellow (yellow nutsedge; Postemergence, 31 g ai/ha): 0
Plant response rating, Nutsedge, Yellow (yellow nutsedge; [14]): 0
Plant response rating, Nutsedge, Yellow (yellow nutsedge; [15]): 0
Plant response rating, Nutsedge, Yellow (yellow nutsedge; [16]): 0
Plant response rating (0 to 100), Corn (corn [2]; Postemergence, 31 g ai/ha): 0
Plant response rating, Corn (corn [2]; [14]): 0
Plant response rating, Corn (corn [2]; [15]): 0
Plant response rating, Corn (corn [2]; [16]): 0
Plant response rating, Ducksalad (duck salad; [10]): 20
Plant response rating, Ducksalad (duck salad; [11]): 45
Plant response rating, Ducksalad (duck salad; [12]): 80
Plant response rating, Ducksalad (duck salad; [13]): 90
Plant response rating (0 to 100), Johnsongrass (johnsongrass; Postemergence, 31 g ai/ha): 0
Plant response rating, Johnsongrass (johnsongrass; [14]): 20
Plant response rating, Johnsongrass (johnsongrass; [15]): 20
Plant response rating, Johnsongrass (johnsongrass; [16]): 60
Barnyardgrass plant response rating (barnyardgrass [3]; [7]): 80
Barnyardgrass plant response rating (barnyardgrass [3]; [8]): 90
Barnyardgrass plant response rating (barnyardgrass [3]; [9]): 70
Plant response rating, Barnyardgrass (barnyardgrass [3]; Preemergence, 500 g ai/ha): 100
Plant response rating (0 to 100), Foxtail, Green (green foxtail; Postemergence, 31 g ai/ha): 0
Plant response rating, Foxtail, Green (green foxtail; [14]): 0
Plant response rating, Foxtail, Green (green foxtail; [15]): 0
Plant response rating, Foxtail, Green (green foxtail; [16]): 5
Plant response rating (0 to 100), Soybean (soybean; Postemergence, 31 g ai/ha): 0
Plant response rating (0 to 100), Soybean (soybean; Postemergence, 62 g ai/ha): 0
Plant response rating, Soybean (soybean; [15]): 0
Plant response rating, Soybean (soybean; [16]): 0
Crabgrass, Large plant response rating (crabgrass [4]; [7]): 80
Crabgrass, Large plant response rating (crabgrass [4]; [8]): 80
Crabgrass, Large plant response rating (crabgrass [4]; [9]): 60
Plant response rating, Crabgrass, Large (crabgrass [4]; Preemergence, 500 g ai/ha): 90
Plant response rating (0 to 100), Goosegrass (Goosegrass; Postemergence, 31 g ai/ha): 0
Plant response rating, Goosegrass (Goosegrass; [14]): 0
Plant response rating, Goosegrass (Goosegrass; [15]): 0
Plant response rating, Goosegrass (Goosegrass; [16]): 0
Plant response rating (0 to 100), Pigweed (pigweed; Postemergence, 31 g ai/ha): 0
Plant response rating (0 to 100), Pigweed (pigweed; Postemergence, 62 g ai/ha): 0
Plant response rating, Pigweed (pigweed; [15]): 0
Plant response rating, Pigweed (pigweed; [16]): 0
Plant response rating (0 to 100), Ryegrass, Italian (Italian ryegrass; Postemergence, 31 g ai/ha): 0
Plant response rating (0 to 100), Ryegrass, Italian (Italian ryegrass; Postemergence, 62 g ai/ha): 0
Plant response rating, Ryegrass, Italian (Italian ryegrass; [15]): 40
Plant response rating, Ryegrass, Italian (Italian ryegrass; [16]): 45
Plant response rating, Barnyardgrass (barnyardgrass [5]; [10]): 0
Plant response rating, Barnyardgrass (barnyardgrass [5]; [11]): 15
Plant response rating, Barnyardgrass (barnyardgrass [5]; [12]): 60
Plant response rating, Barnyardgrass (barnyardgrass [5]; [13]): 65
Corn plant response rating (corn [6]; [7]): 0
Corn plant response rating (corn [6]; [8]): 40
Corn plant response rating (corn [6]; [9]): 0
Plant response rating, Corn (corn [6]; Preemergence, 500 g ai/ha): 0
Plant response rating (0 to 100), Bermudagrass (bermudagrass; Postemergence, 31 g ai/ha): 0
Plant response rating, Bermudagrass (bermudagrass; [14]): 0
Plant response rating, Bermudagrass (bermudagrass; [15]): 10
Plant response rating, Bermudagrass (bermudagrass; [16]): 30

Cn1nc(C(F)(F)F)c(CS(=O)(=O)c2cccc[n+]2[O-])c1OCC(F)F [Compound 81]
Plant response rating, Velvetleaf (velvetleaf; Postemergence, 125 g ai/ha): 10
Velvetleaf plant response rating (velvetleaf; [8]): 70
Velvetleaf plant response rating (velvetleaf; [9]): 10
Plant response rating, Velvetleaf (velvetleaf; Preemergence, 500 g ai/ha): 100
Plant response rating, Sedge, Umbrella (umbrella sedge; [17]): 75
Plant response rating, Sedge, Umbrella (umbrella sedge; [13]): 95
Crabgrass, Large plant response rating (crabgrass [1]; [18]): 80
Crabgrass, Large plant response rating (crabgrass [1]; [19]): 98
Plant response rating, Crabgrass, Large (crabgrass [1]; [20]): 60
Crabgrass, Large plant response rating (crabgrass [1]; [21]): 98
Nutsedge, Yellow plant response rating (yellow nutsedge; [18]): 70
Nutsedge, Yellow plant response rating (yellow nutsedge; [19]): 85
Plant response rating, Nutsedge, Yellow (yellow nutsedge; [20]): 50
Nutsedge, Yellow plant response rating (yellow nutsedge; [21]): 98
Corn plant response rating (corn [2]; [18]): 20
Corn plant response rating (corn [2]; [19]): 100
Plant response rating, Corn (corn [2]; [20]): 0
Corn plant response rating (corn [2]; [21]): 100
Plant response rating, Ducksalad (duck salad; [17]): 65
Plant response rating, Ducksalad (duck salad; [13]): 75
Johnsongrass plant response rating (johnsongrass; [18]): 95
Johnsongrass plant response rating (johnsongrass; [19]): 100
Plant response rating, Johnsongrass (johnsongrass; [20]): 95
Johnsongrass plant response rating (johnsongrass; [21]): 100
Plant response rating, Barnyardgrass (barnyardgrass [3]; Postemergence, 125 g ai/ha): 60
Barnyardgrass plant response rating (barnyardgrass [3]; [8]): 80
Barnyardgrass plant response rating (barnyardgrass [3]; [9]): 90
Plant response rating, Barnyardgrass (barnyardgrass [3]; Preemergence, 500 g ai/ha): 100
Foxtail, Green plant response rating (green foxtail; [18]): 75
Foxtail, Green plant response rating (green foxtail; [19]): 100
Plant response rating, Foxtail, Green (green foxtail; [20]): 65
Foxtail, Green plant response rating (green foxtail; [21]): 100
Soybean plant response rating (soybean; [18]): 0
Soybean plant response rating (soybean; [19]): 100
Plant response rating, Soybean (soybean; [20]): 0
Soybean plant response rating (soybean; [21]): 100
Plant response rating, Crabgrass, Large (crabgrass [4]; Postemergence, 125 g ai/ha): 50
Crabgrass, Large plant response rating (crabgrass [4]; [8]): 70
Crabgrass, Large plant response rating (crabgrass [4]; [9]): 80
Plant response rating, Crabgrass, Large (crabgrass [4]; Preemergence, 500 g ai/ha): 100
Goosegrass plant response rating (Goosegrass; [18]): 98
Goosegrass plant response rating (Goosegrass; [19]): 100
Plant response rating, Goosegrass (Goosegrass; [20]): 55
Goosegrass plant response rating (Goosegrass; [21]): 100
Pigweed plant response rating (pigweed; [18]): 98
Pigweed plant response rating (pigweed; [19]): 100
Plant response rating, Pigweed (pigweed; [20]): 0
Pigweed plant response rating (pigweed; [21]): 100
Ryegrass, Italian plant response rating (Italian ryegrass; [18]): 0
Ryegrass, Italian plant response rating (Italian ryegrass; [19]): 50
Plant response rating, Ryegrass, Italian (Italian ryegrass; [20]): 0
Ryegrass, Italian plant response rating (Italian ryegrass; [21]): 100
Plant response rating, Barnyardgrass (barnyardgrass [5]; [17]): 0
Plant response rating, Barnyardgrass (barnyardgrass [5]; [13]): 0
Plant response rating, Corn (corn [6]; Postemergence, 125 g ai/ha): 0
Corn plant response rating (corn [6]; [8]): 50
Corn plant response rating (corn [6]; [9]): 30
Plant response rating, Corn (corn [6]; Preemergence, 500 g ai/ha): 70
Bermudagrass plant response rating (bermudagrass; 62 g ai/ha, Preemergence, scale 0 to 100 (0 no effect, 100 complete control)): 100
Bermudagrass plant response rating (bermudagrass; [19]): 100
Plant response rating, Bermudagrass (bermudagrass; [20]): 80
Bermudagrass plant response rating (bermudagrass; [21]): 100

From patent US20100298141A1, “SUBSTITUTED PYRIDINE N-OXIDE HERBICIDES” (E. I. DU PONT DE NEMOURS AND COMPANY, priority 2007, published 2010)
